Results on nine compounds are retold here after patent publication US7112553B1, “Pesticidal indazole or benzotriazole derivatives” (Syngenta Limited, priority 1999, dated 2006).

Assay [1] has as its system Pyricularia oryzae (PYRIOR) on rice. The assay is classed as in vivo. Conditions: 100 ppm foliar spray; rice inoculated one day after chemical application (Prot).
Assay [2] has as its system Phytophthora infestans lycopersici (PHYTIN) on tomatoes. The assay is classed as in vivo. Conditions: 100 ppm foliar spray; tomatoes inoculated one day after chemical application (Prot).
For assay [3], the system named is Puccinia recondita (PUCCRT) on wheat. Conditions: in vivo.
The test system of assay [4] is Uncinula necator (UNCINE) on vines. Conditions: in vivo.

Regarding `Cc1nsc(NC(=O)Cc2ccc3nn(CC(F)(F)F)nc3c2)c1Cl` [Sample 8], the “PRCO (Percentage Reduction from Control) PYRIOR Prot” value in assay [1] worked out at 100%.
As for `CCCCCn1nc2ccc(CC(=O)Nc3snc(C)c3Cl)cc2n1` [Sample 9], the “PRCO (Percentage Reduction from Control) PHYTIN Prot” value in assay [2] is on record as 100%. The “PRCO (Percentage Reduction from Control) PUCCRT Prot” value in assay [3] was 99%. Besides, in assay [1], the “PRCO (Percentage Reduction from Control) PYRIOR Prot” value came to 100%.
Regarding `CCCC(C)n1nc2ccc(CC(=O)Nc3snc(C)c3Cl)cc2n1` (stereo not shown) [Sample 30], in assay [4], the “PRCO (Percentage Reduction from Control) UNCINE Erad” value turned out to be 100%. Moreover, in assay [2], the “PRCO (Percentage Reduction from Control) PHYTIN Prot” value was determined as 100%. In addition, in assay [3], the “PRCO (Percentage Reduction from Control) PUCCRT Prot” value is 100%.
In the case of `CCCn1nc2ccc(CC(=O)Nc3snc(C)c3Cl)cc2n1` [Sample 1, N-(4-chloro-3-methylisothiazol-5-yl)-(2-propylbenzotriazol-5-yl)acetamide], in assay [2], the “PRCO (Percentage Reduction from Control) PHYTIN Prot” value was found to be 100%. Also, the “PRCO (Percentage Reduction from Control) PUCCRT Prot” value in assay [3] stood at 100%. Besides, the “PRCO (Percentage Reduction from Control) PYRIOR Prot” value in assay [1] was 100%.
Consider `Cc1nsc(NC(=O)Cc2ccc3nn(Cc4ccc(F)cc4)nc3c2)c1Cl` [Sample 4], for which the “PRCO (Percentage Reduction from Control) PYRIOR Prot” value in assay [1] came to 92%.
As for `Cc1nsc(NC(=O)Cc2ccc3nn(C)nc3c2)c1Cl` [Sample 2], in assay [1], the “PRCO (Percentage Reduction from Control) PYRIOR Prot” value came to 87%.
`CCCn1nc2ccc(CC(=O)N=c3sn(COCC)c(C)c3Cl)cc2n1` [Sample 34, N-[2-ethoxymethyl-4-chloro-3-methylisothiazolin-5-ylidene]-(2-propylbenzo-triazol-5-yl)acetamide]: the “PRCO (Percentage Reduction from Control) UNCINE Erad” value in assay [4] is on record as 100%. Besides, the “PRCO (Percentage Reduction from Control) PHYTIN Prot” value in assay [2] is 81%. In assay [1], the “PRCO (Percentage Reduction from Control) PYRIOR Prot” value turned out to be 93%.
Turning to `Cc1nsc(NC(=O)Cc2ccc3nn(-c4ccc(C(F)(F)F)cc4Cl)nc3c2)c1Cl` [Sample 11], the “PRCO (Percentage Reduction from Control) PYRIOR Prot” value in assay [1] is 100%.
In the case of `CCC(C)n1nc2ccc(CC(=O)Nc3snc(C)c3Cl)cc2n1` (stereo not shown) [Sample 31], the “PRCO (Percentage Reduction from Control) UNCINE Erad” value in assay [4] is recorded as 100%. In assay [2], the “PRCO (Percentage Reduction from Control) PHYTIN Prot” value is 100%. Besides, in assay [3], the “PRCO (Percentage Reduction from Control) PUCCRT Prot” value came to 100%.
